Results reported in patent US9675629B2, “PH-responsive nanoparticle using mussel adhesive protein for drug delivery and method for preparing the same” (POSTECH ACADEMY-INDUSTRY FOUNDATION, priority 2015, dated 2017).

Test system: HeLa cells
Assay: Cellular uptake evaluation, cell imaging and flow cytometer analysis
Format: cell-based
Conditions: DOX 2 μg/mL
Procedure: For cellular uptake evaluation, cell imaging and flow cytometer analysis were performed. For cell imaging, free DOX and DOX-loaded mfp-1 nanoparticles (DOX concentration 2 μg/mL) were treated for 1 and 3 hours into each cell culture medium after initial cell seeding on 24-well culture plate. Before observation, cells were stained with 5 μg/mL of Hoechst 33258 (Sigma) solution for 30 minutes to clearly discriminate cell nucleus from cytosol. Cell nucleus and location of DOX were observed using fluorescence microscopy (Olympus). Cells treated by same condition with imaging procedures were collected for flow cytometry analysis after detachment by 0.25% trypsin-EDTA treatment. Fluorescence intensity of DOX in the collected cells resuspended in 1 mL PBS was examined by fluorescence scanning with 1×10^4 cells under PerCP-Cy5.5 filter (488 nm excitation and 630 nm emission). Calibration was performed using non-treated cells.

SMILES: COc1cccc2c1C(=O)c1c(O)c3c(c(O)c1C2=O)C[C@@](O)(C(=O)CO)C[C@@H]3O[C@H]1C[C@H](N)[C@H](O)[C@H](C)O1 [free DOX, doxorubicin]
- fluorescence intensity of DOX in cells, flow cytometry (1 and 3 hours): higher than DOX-loaded mfp-1 nanoparticles-treated cells
- location of DOX in cells, fluorescence microscopy (treated for 1 hour): spread over the whole cell area
